Target: T1, P2X2 (His-rP2x2-StrepII) (Rattus norvegicus, UniProt P49653)
T1 construct: gene P2rx2; His tag and StrepII tag; homotrimer
T1 sequence (P49653 1-472): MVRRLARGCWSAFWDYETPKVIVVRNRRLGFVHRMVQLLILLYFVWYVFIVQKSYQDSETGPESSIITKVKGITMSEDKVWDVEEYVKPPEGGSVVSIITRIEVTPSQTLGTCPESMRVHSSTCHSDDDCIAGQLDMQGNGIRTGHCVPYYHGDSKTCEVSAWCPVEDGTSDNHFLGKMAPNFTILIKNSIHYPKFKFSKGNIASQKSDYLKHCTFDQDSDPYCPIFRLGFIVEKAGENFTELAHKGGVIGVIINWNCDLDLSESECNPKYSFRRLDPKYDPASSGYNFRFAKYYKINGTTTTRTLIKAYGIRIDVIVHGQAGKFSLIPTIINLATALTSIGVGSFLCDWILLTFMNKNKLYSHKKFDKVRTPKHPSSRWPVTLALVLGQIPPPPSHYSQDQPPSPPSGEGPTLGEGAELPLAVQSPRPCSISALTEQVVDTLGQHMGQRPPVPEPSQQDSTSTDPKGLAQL
Test: whole-cell patch clamp, HEK293, multi-step microfluidic application
Format: cell-based

Q: How did the EC50 turn out when `Nc1ncnc2c1ncn2[C@@H]1O[C@H](COP(=O)(O)OP(=O)(O)OP(=O)(O)O)[C@@H](O)[C@H]1O` [ATP] was run?
A: 1500 ± 20 nM
